Results from ChEMBL document CHEMBL1921798, “Discovery of a potent, selective, and orally available class I phosphatidylinositol 3-kinase (PI3K)/mammalian target of rapamycin (mTOR) kinase inhibitor (GDC-0980) for the treatment of cancer” (J Med Chem, 2011).
In brackets after ≈: the same amount, converted by molar mass.

Assays:
[1] = in vivo; details: Sprague-Dawley, rat, po, 1 mg/kg
[2] = in vivo; details: Sprague-Dawley, rat, plasma, iv, 1 mg/kg
[3] = physchem; details: buffer, pH 6.5
Description: Thermodynamic solubility of the compound at pH 6.5

[4] = molecular target: Phosphatidylinositol 4,5-bisphosphate 3-kinase catalytic subunit beta isoform (Homo sapiens, UniProt P42338)
Description: Inhibition of PI3K subunit p110beta assessed as formation of phosphatidylinositide-3-phosphate product formation after 30 mins by fluorescence polarization assay

[5] = molecular target: T1, Phosphatidylinositol 4,5-bisphosphate 3-kinase catalytic subunit delta isoform (Homo sapiens, UniProt O00329)
T1 sequence (O00329 whole entry): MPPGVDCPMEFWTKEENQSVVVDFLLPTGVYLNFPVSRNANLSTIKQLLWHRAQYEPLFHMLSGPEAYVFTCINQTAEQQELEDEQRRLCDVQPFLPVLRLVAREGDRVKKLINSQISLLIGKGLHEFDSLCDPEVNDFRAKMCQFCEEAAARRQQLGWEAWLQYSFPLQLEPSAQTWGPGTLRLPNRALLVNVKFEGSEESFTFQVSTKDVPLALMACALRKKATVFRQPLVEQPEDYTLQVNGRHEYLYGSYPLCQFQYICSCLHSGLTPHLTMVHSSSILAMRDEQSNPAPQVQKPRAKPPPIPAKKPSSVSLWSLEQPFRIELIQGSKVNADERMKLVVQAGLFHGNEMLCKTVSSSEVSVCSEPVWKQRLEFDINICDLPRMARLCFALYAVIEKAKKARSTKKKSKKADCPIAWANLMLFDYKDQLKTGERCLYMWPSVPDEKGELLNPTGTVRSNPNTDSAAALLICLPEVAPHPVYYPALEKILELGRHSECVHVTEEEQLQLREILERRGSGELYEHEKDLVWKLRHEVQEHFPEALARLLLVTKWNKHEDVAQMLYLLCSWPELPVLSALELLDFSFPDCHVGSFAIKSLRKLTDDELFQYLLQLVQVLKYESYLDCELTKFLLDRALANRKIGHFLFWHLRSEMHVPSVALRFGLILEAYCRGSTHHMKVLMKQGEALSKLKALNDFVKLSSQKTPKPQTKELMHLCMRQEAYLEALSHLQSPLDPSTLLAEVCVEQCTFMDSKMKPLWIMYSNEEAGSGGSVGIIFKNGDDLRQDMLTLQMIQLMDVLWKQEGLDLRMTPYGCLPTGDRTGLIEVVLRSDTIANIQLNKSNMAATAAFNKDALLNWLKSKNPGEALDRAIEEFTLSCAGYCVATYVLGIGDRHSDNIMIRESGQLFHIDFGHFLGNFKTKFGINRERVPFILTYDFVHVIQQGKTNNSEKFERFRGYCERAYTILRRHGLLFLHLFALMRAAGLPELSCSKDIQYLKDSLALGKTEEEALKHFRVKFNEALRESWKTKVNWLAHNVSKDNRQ

[6] = molecular target: Serine/threonine-protein kinase mTOR (Homo sapiens, UniProt P42345)
Description: Inhibition of human recombinant mTOR expressed in insect cells assessed as phosphorylation of recombinant (GFP)-4-EBP1 measured after 30 mins by fluorescence polarization assay

[7] = molecular target: Phosphatidylinositol 4,5-bisphosphate 3-kinase catalytic subunit gamma isoform (Homo sapiens, UniProt P48736)
[8] = in vivo; details: beagle, dog, plasma, iv, 1 mg/kg
[9] = molecular target: Phosphatidylinositol 4,5-bisphosphate 3-kinase catalytic subunit alpha isoform (Homo sapiens, UniProt P42336)
Description: Inhibition of PI3K subunit p110alpha assessed as formation of phosphatidylinositide-3-phosphate product formation after 30 mins by fluorescence polarization assay

[10] = in vitro; details: human, plasma
Description: Plasma protein binding in human

[11] = physchem; details: octanol/water
Description: Lipophilicity, log D of the compound

Phosphatidylinositol 4,5-bisphosphate 3-kinase catalytic subunit beta isoform, sequence (P42338 whole entry, canonical isoform): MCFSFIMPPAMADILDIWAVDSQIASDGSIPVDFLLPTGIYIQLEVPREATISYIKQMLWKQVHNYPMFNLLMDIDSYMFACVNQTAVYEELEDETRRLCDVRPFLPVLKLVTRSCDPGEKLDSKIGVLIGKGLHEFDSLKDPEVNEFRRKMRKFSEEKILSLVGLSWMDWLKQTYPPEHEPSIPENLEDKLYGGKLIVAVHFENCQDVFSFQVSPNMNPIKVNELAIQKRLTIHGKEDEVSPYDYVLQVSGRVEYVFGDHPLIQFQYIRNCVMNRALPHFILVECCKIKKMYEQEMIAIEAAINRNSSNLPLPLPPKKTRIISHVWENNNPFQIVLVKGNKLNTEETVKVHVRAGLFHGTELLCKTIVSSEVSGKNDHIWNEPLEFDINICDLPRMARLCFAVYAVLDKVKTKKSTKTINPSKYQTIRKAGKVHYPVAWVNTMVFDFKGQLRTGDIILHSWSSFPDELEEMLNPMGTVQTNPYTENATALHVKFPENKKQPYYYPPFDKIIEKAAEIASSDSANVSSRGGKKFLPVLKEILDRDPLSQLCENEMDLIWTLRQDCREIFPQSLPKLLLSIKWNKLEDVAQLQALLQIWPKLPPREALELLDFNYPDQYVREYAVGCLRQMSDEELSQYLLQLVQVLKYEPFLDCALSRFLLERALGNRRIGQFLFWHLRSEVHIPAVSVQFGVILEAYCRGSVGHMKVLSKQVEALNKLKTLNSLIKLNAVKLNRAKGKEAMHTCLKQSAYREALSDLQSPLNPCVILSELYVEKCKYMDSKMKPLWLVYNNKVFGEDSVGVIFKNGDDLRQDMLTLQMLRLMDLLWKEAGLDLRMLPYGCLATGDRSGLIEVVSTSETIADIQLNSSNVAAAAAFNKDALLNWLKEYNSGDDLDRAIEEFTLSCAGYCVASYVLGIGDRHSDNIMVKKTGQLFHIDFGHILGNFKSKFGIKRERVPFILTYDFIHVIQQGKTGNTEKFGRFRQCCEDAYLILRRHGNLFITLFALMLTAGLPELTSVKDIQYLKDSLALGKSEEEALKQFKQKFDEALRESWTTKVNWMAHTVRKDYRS
Phosphatidylinositol 4,5-bisphosphate 3-kinase catalytic subunit gamma isoform, sequence (P48736 whole entry, canonical isoform): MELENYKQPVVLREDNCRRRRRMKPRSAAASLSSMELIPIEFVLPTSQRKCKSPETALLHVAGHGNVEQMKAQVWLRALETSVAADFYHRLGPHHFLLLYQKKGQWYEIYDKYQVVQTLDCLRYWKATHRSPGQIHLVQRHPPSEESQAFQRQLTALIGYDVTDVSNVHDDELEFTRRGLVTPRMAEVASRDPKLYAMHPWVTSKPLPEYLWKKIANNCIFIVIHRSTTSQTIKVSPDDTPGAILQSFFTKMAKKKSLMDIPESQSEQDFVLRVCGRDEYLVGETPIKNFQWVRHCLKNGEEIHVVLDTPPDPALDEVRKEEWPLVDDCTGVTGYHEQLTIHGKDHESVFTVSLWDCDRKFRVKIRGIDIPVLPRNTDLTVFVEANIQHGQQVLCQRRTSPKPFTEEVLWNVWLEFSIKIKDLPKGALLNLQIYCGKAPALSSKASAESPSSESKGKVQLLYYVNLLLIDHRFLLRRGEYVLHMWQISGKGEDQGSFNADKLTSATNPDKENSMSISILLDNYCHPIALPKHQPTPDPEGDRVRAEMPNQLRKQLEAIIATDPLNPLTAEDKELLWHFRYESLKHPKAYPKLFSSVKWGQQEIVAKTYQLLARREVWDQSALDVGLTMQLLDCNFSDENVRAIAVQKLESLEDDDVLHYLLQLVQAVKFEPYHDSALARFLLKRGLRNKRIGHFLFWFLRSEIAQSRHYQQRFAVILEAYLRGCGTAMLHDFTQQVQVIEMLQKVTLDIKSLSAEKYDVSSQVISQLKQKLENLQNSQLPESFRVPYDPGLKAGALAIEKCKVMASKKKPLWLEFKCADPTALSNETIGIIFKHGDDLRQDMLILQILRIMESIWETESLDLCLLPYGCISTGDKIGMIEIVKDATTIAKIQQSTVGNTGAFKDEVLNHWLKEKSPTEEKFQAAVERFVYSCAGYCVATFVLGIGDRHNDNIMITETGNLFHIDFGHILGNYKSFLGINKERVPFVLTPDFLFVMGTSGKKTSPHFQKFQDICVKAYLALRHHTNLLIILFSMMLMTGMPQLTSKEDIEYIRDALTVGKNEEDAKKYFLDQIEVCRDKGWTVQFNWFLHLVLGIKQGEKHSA
Phosphatidylinositol 4,5-bisphosphate 3-kinase catalytic subunit alpha isoform, sequence (P42336 whole entry, canonical isoform): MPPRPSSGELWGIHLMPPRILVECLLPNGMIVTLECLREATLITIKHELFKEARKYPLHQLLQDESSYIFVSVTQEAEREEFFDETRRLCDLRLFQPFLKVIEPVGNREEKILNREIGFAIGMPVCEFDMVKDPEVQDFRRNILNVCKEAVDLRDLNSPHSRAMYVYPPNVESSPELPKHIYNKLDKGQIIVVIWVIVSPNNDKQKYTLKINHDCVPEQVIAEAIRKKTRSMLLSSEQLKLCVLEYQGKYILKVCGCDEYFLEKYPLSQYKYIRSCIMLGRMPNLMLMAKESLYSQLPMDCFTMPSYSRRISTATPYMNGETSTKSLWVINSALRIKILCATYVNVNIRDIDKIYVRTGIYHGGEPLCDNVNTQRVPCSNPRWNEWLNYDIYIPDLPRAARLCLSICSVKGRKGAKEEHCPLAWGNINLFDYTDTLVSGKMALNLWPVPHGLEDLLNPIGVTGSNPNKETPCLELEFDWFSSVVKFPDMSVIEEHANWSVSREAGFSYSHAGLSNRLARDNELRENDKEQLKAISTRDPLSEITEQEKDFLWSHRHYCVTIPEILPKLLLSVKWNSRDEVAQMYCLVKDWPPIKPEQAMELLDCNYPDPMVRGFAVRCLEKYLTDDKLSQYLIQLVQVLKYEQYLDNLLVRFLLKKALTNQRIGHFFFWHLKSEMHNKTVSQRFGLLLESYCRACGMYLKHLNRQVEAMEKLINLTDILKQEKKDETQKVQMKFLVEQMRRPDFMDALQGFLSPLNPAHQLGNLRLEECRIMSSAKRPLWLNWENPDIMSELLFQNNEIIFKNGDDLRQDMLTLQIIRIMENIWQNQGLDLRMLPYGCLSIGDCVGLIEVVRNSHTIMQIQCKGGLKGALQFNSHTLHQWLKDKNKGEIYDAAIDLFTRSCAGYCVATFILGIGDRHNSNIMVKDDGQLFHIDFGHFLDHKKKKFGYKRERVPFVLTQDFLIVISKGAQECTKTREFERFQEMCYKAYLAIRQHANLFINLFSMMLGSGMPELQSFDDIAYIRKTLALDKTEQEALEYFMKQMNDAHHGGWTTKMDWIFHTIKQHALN

SMILES	clearance [2] [mL/min/kg]	solubility thermodynamic [3] [µg/mL]	IC50 [4] [nM]	IC50 [5] [nM]	IC50 [7] [nM]	other results
CS(=O)(=O)N1CCN(Cc2cc3nc(-c4cnc(N)nc4)nc(N4CCOCC4)c3s2)CC1.Cl	–	–	–	–	–	clearance [8]: 22 mL/min/kg
Cc1c(CN2CCN(C(=O)CO)CC2)sc2c(N3CCOCC3)nc(-c3cnc(N)nc3)nc12	–	–	19	5.6	10	Ki [9]: 2.8 nM
CS(=O)(=O)N1CCN(Cc2cc3nc(-c4cnc(N)nc4)nc(N4CCOCC4)c3s2)CC1	–	24 (≈ 48.9 µM)	–	–	–	fraction unbound [10]: 0.49; logD [11]: 1.3
Cc1c(CN2CCN(S(C)(=O)=O)CC2)sc2c(N3CCOCC3)nc(-c3cnc(N)nc3)nc12.Cl	–	–	–	–	–	clearance [8]: 5 mL/min/kg
Cc1c(CN2CCN(C(=O)CN)CC2)sc2c(N3CCOCC3)nc(-c3cnc(N)nc3)nc12	–	690 (≈ 1430 µM)	11	4.3	17	IC50 [9]: 0.7 nM; Ki [6]: 12 nM
CS(=O)(=O)N1CCN(Cc2cc3nc(-c4cnc(N)nc4)nc(N4CCOCC4)c3s2)CC1.O=C(O)C(F)(F)F	24	–	–	–	–	–
Cc1c(CN2CCN(S(C)(=O)=O)CC2)sc2c(N3CCOCC3)nc(-c3cnc(N)nc3)nc12	–	9 (≈ 17.8 µM)	–	–	–	fraction unbound [10]: 0.23

Further lines, with some results ahead:

clearance [2] [mL/min/kg]	solubility thermodynamic [3] [µg/mL]	IC50 [4] [nM]	IC50 [5] [nM]	IC50 [7] [nM]	SMILES	other results
140	–	–	–	–	Cc1c(CN2CCN(C(=O)CN)CC2)sc2c(N3CCOCC3)nc(-c3cnc(N)nc3)nc12.O=C(O)C(F)(F)F	bioavailability [1]: 0%
–	600 (≈ 1170 µM)	45	5	25	Cc1c(CN2CCN(C(=O)C(C)(C)O)CC2)sc2c(N3CCOCC3)nc(-c3cnc(N)nc3)nc12	Ki [6]: 14 nM
13	–	–	–	–	Cc1c(CN2CCN(S(C)(=O)=O)CC2)sc2c(N3CCOCC3)nc(-c3cnc(N)nc3)nc12.O=C(O)C(F)(F)F	–
–	1000 (≈ 1950 µM)	44	1.5	20	Cc1c(CN2CCN(C(=O)C(C)(C)N)CC2)sc2c(N3CCOCC3)nc(-c3cnc(N)nc3)nc12	Ki [6]: 14 nM
24	–	–	–	–	Cc1c(CN2CCN(C(=O)C(C)(C)O)CC2)sc2c(N3CCOCC3)nc(-c3cnc(N)nc3)nc12.O=C(O)C(F)(F)F	bioavailability [1]: 71%
–	–	29	2.4	37	Cc1c(CN2CCN(C(=O)[C@H](C)N)CC2)sc2c(N3CCOCC3)nc(-c3cnc(N)nc3)nc12	Ki [6]: 6.3 nM
84	–	–	–	–	Cc1c(CN2CCN(C(=O)C(C)(C)N)CC2)sc2c(N3CCOCC3)nc(-c3cnc(N)nc3)nc12.O=C(O)C(F)(F)F	bioavailability [1]: 6%
